Here are results for 35 compounds from patent US8044069B2, “Compounds as calcium channel blockers” (Abbott Laboratories, priority 2008, dated 2011).

pIC50: −log10 of the molar value.

Chain of human Cav2.2 (Q00975 whole entry): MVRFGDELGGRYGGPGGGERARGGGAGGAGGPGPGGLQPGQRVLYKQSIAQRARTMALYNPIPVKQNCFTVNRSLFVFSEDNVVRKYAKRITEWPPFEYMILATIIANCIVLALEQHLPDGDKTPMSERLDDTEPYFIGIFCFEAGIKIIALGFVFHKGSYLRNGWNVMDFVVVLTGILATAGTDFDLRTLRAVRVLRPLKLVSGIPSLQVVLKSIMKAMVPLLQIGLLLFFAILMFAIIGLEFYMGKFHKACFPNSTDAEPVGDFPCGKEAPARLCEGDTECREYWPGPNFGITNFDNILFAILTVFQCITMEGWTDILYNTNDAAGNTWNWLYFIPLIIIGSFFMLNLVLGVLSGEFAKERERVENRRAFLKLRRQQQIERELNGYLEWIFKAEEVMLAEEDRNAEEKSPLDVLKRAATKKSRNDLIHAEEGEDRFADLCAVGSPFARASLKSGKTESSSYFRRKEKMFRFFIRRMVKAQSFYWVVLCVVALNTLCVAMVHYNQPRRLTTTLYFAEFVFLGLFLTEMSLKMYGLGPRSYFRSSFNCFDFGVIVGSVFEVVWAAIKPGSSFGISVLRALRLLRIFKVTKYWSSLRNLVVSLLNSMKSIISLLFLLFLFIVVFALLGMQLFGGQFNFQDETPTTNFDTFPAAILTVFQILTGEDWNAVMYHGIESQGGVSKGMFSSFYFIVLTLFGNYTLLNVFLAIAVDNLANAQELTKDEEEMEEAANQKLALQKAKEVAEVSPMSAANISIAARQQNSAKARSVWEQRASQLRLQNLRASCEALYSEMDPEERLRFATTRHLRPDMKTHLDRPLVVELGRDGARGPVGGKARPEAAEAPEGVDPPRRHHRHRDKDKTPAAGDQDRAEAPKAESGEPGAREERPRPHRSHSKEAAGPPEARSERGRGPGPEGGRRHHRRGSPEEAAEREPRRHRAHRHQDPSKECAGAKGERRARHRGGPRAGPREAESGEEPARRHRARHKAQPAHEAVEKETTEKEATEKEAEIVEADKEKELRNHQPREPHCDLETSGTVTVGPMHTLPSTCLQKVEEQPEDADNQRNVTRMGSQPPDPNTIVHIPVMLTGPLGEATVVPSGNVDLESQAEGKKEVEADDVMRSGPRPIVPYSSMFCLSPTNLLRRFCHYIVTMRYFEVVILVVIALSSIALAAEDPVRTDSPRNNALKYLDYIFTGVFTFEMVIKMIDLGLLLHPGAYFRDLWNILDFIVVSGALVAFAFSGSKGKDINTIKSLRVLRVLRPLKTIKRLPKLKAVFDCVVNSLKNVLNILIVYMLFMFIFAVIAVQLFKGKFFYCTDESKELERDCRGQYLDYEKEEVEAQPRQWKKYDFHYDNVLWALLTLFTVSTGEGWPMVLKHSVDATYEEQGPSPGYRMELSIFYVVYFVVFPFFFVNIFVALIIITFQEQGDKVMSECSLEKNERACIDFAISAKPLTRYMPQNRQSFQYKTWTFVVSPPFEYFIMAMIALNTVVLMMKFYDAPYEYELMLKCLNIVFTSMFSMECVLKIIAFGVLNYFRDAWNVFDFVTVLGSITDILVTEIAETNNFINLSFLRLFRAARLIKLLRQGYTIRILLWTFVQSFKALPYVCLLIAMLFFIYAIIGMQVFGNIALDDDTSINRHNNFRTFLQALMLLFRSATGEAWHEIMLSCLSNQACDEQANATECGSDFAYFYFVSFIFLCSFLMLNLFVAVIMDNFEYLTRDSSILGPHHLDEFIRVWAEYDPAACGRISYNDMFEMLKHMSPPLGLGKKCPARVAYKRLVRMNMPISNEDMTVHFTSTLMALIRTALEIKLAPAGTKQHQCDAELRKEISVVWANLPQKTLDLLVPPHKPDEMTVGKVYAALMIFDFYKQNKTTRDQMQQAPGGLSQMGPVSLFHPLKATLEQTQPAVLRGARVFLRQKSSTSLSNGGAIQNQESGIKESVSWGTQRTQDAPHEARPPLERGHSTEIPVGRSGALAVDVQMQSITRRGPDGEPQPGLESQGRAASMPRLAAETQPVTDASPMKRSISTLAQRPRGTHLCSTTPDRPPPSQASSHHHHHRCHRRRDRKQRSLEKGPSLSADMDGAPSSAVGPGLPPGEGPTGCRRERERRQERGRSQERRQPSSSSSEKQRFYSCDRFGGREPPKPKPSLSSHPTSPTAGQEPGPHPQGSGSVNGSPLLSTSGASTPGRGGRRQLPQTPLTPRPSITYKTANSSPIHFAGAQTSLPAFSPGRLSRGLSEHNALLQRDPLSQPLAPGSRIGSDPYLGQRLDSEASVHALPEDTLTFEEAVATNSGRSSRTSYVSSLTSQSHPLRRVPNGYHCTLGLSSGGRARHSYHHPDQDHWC
Chain of human Cav2.2 (P54289 25-951 partner limits assumed): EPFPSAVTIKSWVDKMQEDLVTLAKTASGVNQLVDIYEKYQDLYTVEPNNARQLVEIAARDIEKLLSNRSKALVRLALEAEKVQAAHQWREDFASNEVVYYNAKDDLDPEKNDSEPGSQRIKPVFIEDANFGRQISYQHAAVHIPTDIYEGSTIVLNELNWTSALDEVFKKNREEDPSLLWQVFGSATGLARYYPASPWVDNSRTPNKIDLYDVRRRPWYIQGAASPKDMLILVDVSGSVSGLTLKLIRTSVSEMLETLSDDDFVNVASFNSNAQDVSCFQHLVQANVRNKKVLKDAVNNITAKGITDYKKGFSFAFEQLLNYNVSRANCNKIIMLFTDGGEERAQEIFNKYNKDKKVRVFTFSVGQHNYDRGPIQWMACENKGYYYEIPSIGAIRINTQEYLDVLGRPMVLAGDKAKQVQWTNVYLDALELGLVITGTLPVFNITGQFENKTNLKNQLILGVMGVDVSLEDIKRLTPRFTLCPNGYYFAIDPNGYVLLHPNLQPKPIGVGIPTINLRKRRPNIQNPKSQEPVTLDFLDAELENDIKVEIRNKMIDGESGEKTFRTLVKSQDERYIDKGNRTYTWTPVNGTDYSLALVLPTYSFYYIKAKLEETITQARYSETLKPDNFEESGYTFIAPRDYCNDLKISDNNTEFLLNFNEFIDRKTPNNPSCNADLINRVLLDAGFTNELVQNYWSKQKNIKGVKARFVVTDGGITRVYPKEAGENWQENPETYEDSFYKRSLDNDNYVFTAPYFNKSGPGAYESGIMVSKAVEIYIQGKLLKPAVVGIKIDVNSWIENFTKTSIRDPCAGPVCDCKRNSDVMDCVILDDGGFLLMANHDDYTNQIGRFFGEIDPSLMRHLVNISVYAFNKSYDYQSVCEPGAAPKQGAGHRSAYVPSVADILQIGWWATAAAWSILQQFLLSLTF
Chain of human Cav2.2 (P54289 952-1103 partner limits assumed): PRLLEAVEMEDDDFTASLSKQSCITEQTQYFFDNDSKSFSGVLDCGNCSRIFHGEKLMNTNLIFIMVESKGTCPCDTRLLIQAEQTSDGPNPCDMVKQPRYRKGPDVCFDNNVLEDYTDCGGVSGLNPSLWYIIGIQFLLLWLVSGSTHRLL
Chain of human Cav2.2 (P54284 whole entry partner): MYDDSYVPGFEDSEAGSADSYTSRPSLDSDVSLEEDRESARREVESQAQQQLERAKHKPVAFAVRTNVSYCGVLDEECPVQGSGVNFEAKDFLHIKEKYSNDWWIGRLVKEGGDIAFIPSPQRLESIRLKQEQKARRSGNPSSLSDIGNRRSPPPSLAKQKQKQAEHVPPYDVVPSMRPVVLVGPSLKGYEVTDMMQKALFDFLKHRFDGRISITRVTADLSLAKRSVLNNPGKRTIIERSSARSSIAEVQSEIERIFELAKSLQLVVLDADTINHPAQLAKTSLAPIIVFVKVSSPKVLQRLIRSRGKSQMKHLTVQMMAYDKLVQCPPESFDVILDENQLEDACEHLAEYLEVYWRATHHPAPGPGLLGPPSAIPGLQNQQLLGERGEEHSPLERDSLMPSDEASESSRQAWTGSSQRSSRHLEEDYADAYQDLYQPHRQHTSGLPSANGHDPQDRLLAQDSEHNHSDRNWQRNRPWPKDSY

In the experiment the target is human Cav2.2 (Homo sapiens, UniProt Q00975). Description: Assessment of calcium channel activity using FLIPR (Ca2+ influx in IMR32 cells). The format is cell-based. The settings on record: IMR32 cells endogenously expressing human Cav2.2; 60 minute pre-incubation; 2 μM nifedipine; depolarized with 80 mM KCl, 5 mM CaCl2. In short, it runs like this:
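FLIPR measured Ca2+ influx triggered by 80 mM KCl depolarization together with a step to 5 mM external CaCl2. Percent inhibition relative to uninhibited activity was fitted sigmoidally for IC50.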
As to `O=C1N(Cc2nc(-c3ccc(Cl)cc3)no2)CCCC1(c1ccccc1)c1ccccc1` [Example 170, 1-{[3-(4-chlorophenyl)-1,2,4-oxadiazol-5-yl]methyl}-3,3-diphenylpiperidin-2-one], the pIC50 was 5.17.
Take `O=C1N(Cc2nc(-c3ccc(F)cc3)no2)CCCC1(c1ccccc1)c1ccccc1` [Example 100, 1-{[3-(4-fluorophenyl)-1,2,4-oxadiazol-5-yl]methyl}-3,3-diphenylpiperidin-2-one]: the pIC50 is 5.28.
Take `O=C1N(Cc2nc(CCc3ccccc3Cl)no2)CCCC1(c1ccccc1)c1ccccc1` [Example 262, 1-({3-[2-(2-chlorophenyl)ethyl]-1,2,4-oxadiazol-5-yl}methyl)-3,3-diphenylpiperidin-2-one]: the negative-log IC50 (pIC50) was 5.47.
`O=C(CN1CCC(c2ccccc2)(c2ccccc2)C1=O)NC1(c2ccccc2)CCC1` [Example 11, 2-(2-oxo-3,3-diphenylpyrrolidin-1-yl)-N-(1-phenylcyclobutyl)acetamide]: the pIC50 is 6.05.
On to `O=C(CN1CCCC(c2ccccc2)(c2ccccc2)C1=O)N1CCC(Oc2cccc(Cl)c2)CC1` [Example 159, 1-{2-[4-(3-chlorophenoxy)piperidin-1-yl]-2-oxoethyl}-3,3-diphenylpiperidin-2-one], for which the pIC50 is 5.43.
Under `O=C(CN1CCCC(c2ccc(F)cc2)(c2ccc(F)cc2)C1=O)N1CCC(c2ccccc2)(c2ccccc2)C1` [Example 172, 1-[2-(3,3-diphenylpyrrolidin-1-yl)-2-oxoethyl]-3,3-bis(4-fluorophenyl)piperidin-2-one] stands 5.75.
With `O=C(CN1CCC(c2ccccc2)(c2ccccc2)C1=O)N1CCC(NCC(c2ccccc2)c2ccccc2)CC1` [Example 52, 1-(2-{4-[(2,2-diphenylethyl)amino]piperidin-1-yl}-2-oxoethyl)-3,3-diphenylpyrrolidin-2-one], the pIC50 is 5.81.
As to `O=C(CN1CCC(c2ccccc2)(c2ccccc2)C1=O)N1Cc2ccc(F)cc2C1` [Example 26, 1-[2-(5-fluoro-1,3-dihydro-2H-isoindol-2-yl)-2-oxoethyl]-3,3-diphenylpyrrolidin-2-one], the pIC50 was 5.31.
Take `O=C(CN1CCC(c2ccc(F)cc2Cl)C1=O)N1Cc2ccc(F)cc2C1` (centres unmarked) [Example 268, 3-(2-chloro-4-fluorophenyl)-1-[2-(5-fluoro-1,3-dihydro-2H-isoindol-2-yl)-2-oxoethyl]pyrrolidin-2-one]: the pIC50 is 4.94.
For `O=C1N(Cc2nc(Cc3ccc(Cl)cc3)no2)CCCC1(c1ccccc1)c1ccccc1` [Example 207, 1-{[3-(4-chlorobenzyl)-1,2,4-oxadiazol-5-yl]methyl}-3,3-diphenylpiperidin-2-one], the pIC50 is 5.30.
For the compound `O=C(CN1CCC(c2ccccc2)(c2ccccc2)C1=O)N1CCC(=C(c2ccccc2)c2ccccc2)CC1` [Example 31, 1-{2-[4-(diphenylmethylene)piperidin-1-yl]-2-oxoethyl}-3,3-diphenylpyrrolidin-2-one], the pIC50 is 5.72.
With `C[C@@H]1CN(C(c2ccccc2)c2ccccc2)CCN1C(=O)CN1CCC(c2ccccc2)(c2ccccc2)C1=O` [Example 49, 1-{2-[(2R)-4-benzhydryl-2-methylpiperazin-1-yl]-2-oxoethyl}-3,3-diphenylpyrrolidin-2-one], the pIC50 was 5.56.
The figure for `Cc1nc(-c2cccc(C(F)(F)F)c2)sc1CN1CCC(c2ccccc2)(c2ccccc2)C1=O` [Example 157, 1-({4-methyl-2-[3-(trifluoromethyl)phenyl]-1,3-thiazol-5-yl}methyl)-3,3-diphenylpyrrolidin-2-one] is 5.28; for `O=C(CN1CCC(c2ccccc2)(c2ccccc2)C1=O)NC(c1ccccc1)c1ccccc1` [Example 14, N-benzhydryl-2-(2-oxo-3,3-diphenylpyrrolidin-1-yl)acetamide] it is 6.01.
The figure for `O=C(CN1CCC(c2ccc(F)cc2)(c2ccc(F)cc2)C1=O)N1CC2(CCN(Cc3ccc(C(F)(F)F)cc3)CC2)C1` [Example 153, 3,3-bis(4-fluorophenyl)-1-(2-oxo-2-{7-[4-(trifluoromethyl)benzyl]-2,7-diazaspiro[3.5]non-2-yl}ethyl)pyrrolidin-2-one] is 6.07; for `O=C(CN1CCNC(c2ccccc2)C1=O)N1CCN(C(c2ccccc2)c2ccccc2)CC1` (centres unmarked) [Example 102, 1-[2-(4-benzhydrylpiperazin-1-yl)-2-oxoethyl]-3-phenylpiperazin-2-one] it is 5.08.
Under `CN1CCN(CC(=O)N2CCN(C(c3ccc(F)cc3)c3ccc(F)cc3)CC2)C(=O)C1c1ccccc1` (centres unmarked) [Example 104, 1-(2-{4-[bis(4-fluorophenyl)methyl]piperazin-1-yl}-2-oxoethyl)-4-methyl-3-phenylpiperazin-2-one] stands 5.33; under `O=C(CN1CCCC(c2ccccc2)(c2ccccc2)C1=O)N1CCC(n2nnc3cc(C(F)(F)F)ccc32)CC1` [Example 164, 1-(2-oxo-2-{4-[5-(trifluoromethyl)-1H-1,2,3-benzotriazol-1-yl]piperidin-1-yl}ethyl)-3,3-diphenylpiperidin-2-one], 5.69; under `Cc1nc(-c2ccc(C(F)(F)F)cc2)sc1CN1CCC(c2ccccc2)(c2ccccc2)C1=O` [Example 156, 1-({4-methyl-2-[4-(trifluoromethyl)phenyl]-1,3-thiazol-5-yl}methyl)-3,3-diphenylpyrrolidin-2-one], 5.21.
`O=C(CN1CCCC(c2ccc(F)cc2)(c2ccc(F)cc2)C1=O)N1CCN(Cc2cccc(C(F)(F)F)c2)CC1` [Example 175, 3,3-bis(4-fluorophenyl)-1-(2-oxo-2-{4-[3-(trifluoromethyl)benzyl]piperazin-1-yl}ethyl)piperidin-2-one]: the pIC50 is 5.90.
Under `O=C1N(Cc2nc(-c3cccnc3)no2)CCC1(c1ccccc1)c1ccccc1` [Example 221, 3,3-diphenyl-1-[(3-pyridin-3-yl-1,2,4-oxadiazol-5-yl)methyl]pyrrolidin-2-one] stands 5.25.
As for `COc1ccccc1N1CCN(CCN2CCCC(c3ccc(F)cc3)(c3ccc(F)cc3)C2=O)CC1` [Example 137, 3,3-bis(4-fluorophenyl)-1-{2-[4-(2-methoxyphenyl)piperazin-1-yl]ethyl}piperidin-2-one], the pIC50 is 5.96.
Consider `O=C1N(Cc2noc(-c3ccc(C(F)(F)F)cc3)n2)CCC1(c1ccccc1)c1ccccc1` [Example 196, 3,3-diphenyl-1-({5-[4-(trifluoromethyl)phenyl]-1,2,4-oxadiazol-3-yl}methyl)pyrrolidin-2-one], for which the pIC50 is 5.40.
On to `O=C(CN1CCCC(c2ccccc2)(c2ccccc2)C1=O)N1CCC(C(c2ccccc2)c2ccccc2)CC1` [Example 76, 1-[2-(4-benzhydrylpiperidin-1-yl)-2-oxoethyl]-3,3-diphenylpiperidin-2-one], for which the pIC50 is 5.58.
In the case of `O=C(CN1CCCC(c2ccccc2)C1=O)N1CCN(C(c2ccc(F)cc2)c2ccc(F)cc2)CC1` (centres unmarked) [Example 92, 1-(2-{4-[bis(4-fluorophenyl)methyl]piperazin-1-yl}-2-oxoethyl)-3-phenylpiperidin-2-one], the pIC50 is 6.00.
With `O=C1N(Cc2nc(-c3ccc(Br)cc3)no2)CCC1(c1ccc(F)cc1)c1ccc(F)cc1` [Example 233, 1-{[3-(4-bromophenyl)-1,2,4-oxadiazol-5-yl]methyl}-3,3-bis(4-fluorophenyl)pyrrolidin-2-one], the pIC50 was 5.20.
For the compound `O=C1N(CCN2CCN(c3cccc(C(F)(F)F)c3)CC2)CCCC1(c1ccc(F)cc1)c1ccc(F)cc1` [Example 139, 3,3-bis(4-fluorophenyl)-1-(2-{4-[3-(trifluoromethyl)phenyl]piperazin-1-yl}ethyl)piperidin-2-one], the pIC50 was 5.32.
Under `COc1ccc(CCN(C)CCN2CCCC(c3cccc(OC)c3)(C(C)C)C2=O)cc1` (centres unmarked) [Example 130, 3-isopropyl-3-(3-methoxyphenyl)-1-{2-[[2-(4-methoxyphenyl)ethyl](methyl)amino]ethyl}piperidin-2-one] stands 5.95; under `O=C(CN1CCCC(c2ccccc2)(c2ccccc2)C1=O)N1CCC(c2cccc(C(F)(F)F)c2)CC1` [Example 243, 1-(2-oxo-2-{4-[3-(trifluoromethyl)phenyl]piperidin-1-yl}ethyl)-3,3-diphenylpiperidin-2-one], 5.36; under `O=C(CN1CCC(c2ccc(F)cc2)C1=O)N1CCc2ccc(Cl)cc2C1` (centres unmarked) [Example 256, 1-[2-(7-chloro-3,4-dihydroisoquinolin-2(1H)-yl)-2-oxoethyl]-3-(4-fluorophenyl)pyrrolidin-2-one], 5.12.
In the case of `O=C(CN1CCCC(c2ccccc2)(c2ccccc2)C1=O)N1CCC(NC(c2ccccc2)c2ccccc2)CC1` [Example 87, 1-{2-[4-(benzhydrylamino)piperidin-1-yl]-2-oxoethyl}-3,3-diphenylpiperidin-2-one], the pIC50 is 6.12.
As for `O=C1N(CCCN2CCN(c3cccc(C(F)(F)F)c3)CC2)CCCC1(c1ccc(F)cc1)c1ccc(F)cc1` [Example 142, 3,3-bis(4-fluorophenyl)-1-(3-{4-[3-(trifluoromethyl)phenyl]piperazin-1-yl}propyl)piperidin-2-one], the pIC50 was 5.91.
With `O=C1N(Cc2nc(-c3cncc(C(F)(F)F)c3)no2)CCC1(c1ccccc1)c1ccccc1` [Example 219, 3,3-diphenyl-1-({3-[5-(trifluoromethyl)pyridin-3-yl]-1,2,4-oxadiazol-5-yl}methyl)pyrrolidin-2-one], the pIC50 was 5.53.
Take `O=C1N(Cc2nc(-c3ccc(C(F)(F)F)cc3)no2)CCC1(c1ccc(F)cc1)c1ccc(F)cc1` [Example 190, 3,3-bis(4-fluorophenyl)-1-({3-[4-(trifluoromethyl)phenyl]-1,2,4-oxadiazol-5-yl}methyl)pyrrolidin-2-one]: the pIC50 was 5.15.
The figure for `O=C(CN1CCCC(c2ccccc2)(c2ccccc2)C1=O)NC1CN(Cc2cccc(C(F)(F)F)c2F)C1` [Example 201, N-{1-[2-fluoro-3-(trifluoromethyl)benzyl]azetidin-3-yl}-2-(2-oxo-3,3-diphenylpiperidin-1-yl)acetamide] is 6.07.
